Key:
Phytophthora infestans = experiment: whole plant or invertebrate; type: in vivo; conditions: in Solanum lycopersicum, foliar, read-out: control of Phytophthora infestans (percent disease control compared to untreated)
Pythium ultimum = Pythium ultimum / liquid culture (seedling damping off); type: cell-based; conditions: Globisporangium ultimum, liquid culture in PDB, 24° C., 2-3 days after application, read-out: control of Pythium ultimum (inhibition of growth, photometric)
Procedure: Pythium ultimum/Liquid Culture (Seedling Damping Off)
Mycelia fragments and oospores of a newly grown liquid culture of the fungus are directly mixed into nutrient broth (PDB potato dextrose broth). After placing a (DMSO) solution of test compound into a microtiter plate (96-well format), the nutrient broth containing the fungal mycelia/spore mixture is added. The test plates are incubated at 24° C. and the inhibition of growth is determined photometrically 2-3 days after application.

Plasmopara viticola = experiment: whole plant or invertebrate; type: in vivo; conditions: foliar, read-out: control of Plasmopara viticola (percent disease control compared to untreated)

SMILES | pest or weed control at 200 ppm (Phytophthora infestans) [%] | inhibition at 20 ppm (Pythium ultimum) [%] | pest or weed control at 200 ppm (Plasmopara viticola) [%]
COC(=O)Nc1ccc(-c2cnc3c(C)cc(N(C)C(=O)c4ccc(Cl)c(OC)c4)cn23)cn1 [Compound 1, methyl N-[5-[6-[(4-chloro-3-methoxy-benzoyl)-methyl-amino]-8-methyl-imidazo[1,2-a]pyridin-3-yl]-2-pyridyl]carbamate] | ≥ 80 | ≥ 80 | ≥ 80
COC(=O)Nc1ccc(-c2cnc3c(C)cc(N(C)C(=O)c4ccc(C#N)c(C)c4)cn23)cn1 [Compound 2, methyl N-[5-[6-[(4-cyano-3-methyl-benzoyl)-methyl-amino]-8-methyl-imidazo[1,2-a]pyridin-3-yl]-2-pyridyl]carbamate] | – | ≥ 80 | –
COC(=O)Nc1ccc(-c2cnc3c(C)cc(N(C)C(=O)c4ccnc(OC)c4)cn23)cn1 [Compound 3, methyl N-[5-[6-[(2-methoxypyridine-4-carbonyl)-methyl-amino]-8-methyl-imidazo[1,2-a]pyridin-3-yl]-2-pyridyl]carbamate] | ≥ 80 | ≥ 80 | –
COC(=O)Nc1ccc(-c2cnc3c(C)cc(N(C)C(=O)c4ccc(C#N)c(F)c4)cn23)cn1 [Compound 4, methyl N-[5-[6-[(4-cyano-3-fluoro-benzoyl)-methyl-amino]-8-methyl-imidazo[1,2-a]pyridin-3-yl]-2-pyridyl]carbamate] | – | ≥ 80 | –
COC(=O)Nc1ccc(-c2cnc3c(C)cc(N(C)C(=O)c4ccc(C#N)c(OC)c4)cn23)cn1 [Compound 5, methyl N-[5-[6-[(4-cyano-3-methoxy-benzoyl)-methyl-amino]-8-methyl-imidazo[1,2-a]pyridin-3-yl]-2-pyridyl]carbamate] | ≥ 80 | ≥ 80 | ≥ 80
COC(=O)Nc1ccc(-c2cnc3ccc(N(CC#N)C(=O)c4ccc(F)cc4)cn23)cn1 [Compound 6, methyl N-[5-[6-[cyanomethyl-(4-fluorobenzoyl)amino]imidazo[1,2-a]pyridin-3-yl]-2-pyridyl]carbamate] | – | ≥ 80 | –
COC(=O)Nc1ccc(-c2cnc3ccc(N(CC#N)C(=O)c4ccc(F)c(OC)c4)cn23)cn1 [Compound 7, methyl N-[5-[6-[cyanomethyl-(4-fluoro-3-methoxy-benzoyl)amino]imidazo[1,2-a]pyridin-3-yl]-2-pyridyl]carbamate] | – | ≥ 80 | –
CCOc1cc(C(=O)N(C)c2cc(C)c3ncc(-c4ccc(NC(=O)OC)nc4)n3c2)ccc1C#N [Compound 10, methyl N-[5-[6-[(4-cyano-3-ethoxy-benzoyl)-methyl-amino]-8-methyl-imidazo[1,2-a]pyridin-3-yl]-2-pyridyl]carbamate] | ≥ 80 | ≥ 80 | ≥ 80
COC(=O)Nc1ccc(-c2cnc3c(C)cc(N(C)C(=O)c4ccc(F)c(C)c4)cn23)cn1 [Compound 11, methyl N-[5-[6-[(4-fluoro-3-methyl-benzoyl)-methyl-amino]-8-methyl-imidazo[1,2-a]pyridin-3-yl]-2-pyridyl]carbamate] | ≥ 80 | ≥ 80 | ≥ 80
COC(=O)Nc1ccc(-c2cnc3c(C)cc(N(C)C(=O)c4ccc(F)c(F)c4)cn23)cn1 [Compound 12, methyl N-[5-[6-[(3,4-difluorobenzoyl)-methyl-amino]-8-methyl-imidazo[1,2-a]pyridin-3-yl]-2-pyridyl]carbamate] | ≥ 80 | ≥ 80 | ≥ 80
COC(=O)Nc1ccc(-c2cnc3c(C)cc(N(C)C(=O)c4ccc(F)c(OC)c4)cn23)cn1 [Compound 13, methyl N-[5-[6-[(4-fluoro-3-methoxy-benzoyl)-methyl-amino]-8-methyl-imidazo[1,2-a]pyridin-3-yl]-2-pyridyl]carbamate] | ≥ 80 | ≥ 80 | ≥ 80
COCCN(C(=O)c1ccc(F)c(OC)c1)c1ccc2ncc(-c3ccc(NC(=O)OC)nc3)n2c1 [Compound 14, methyl N-[5-[6-[(4-fluoro-3-methoxy-benzoyl)-(2-methoxyethyl)amino]imidazo[1,2-a]pyridin-3-yl]-2-pyridyl]carbamate] | – | ≥ 80 | –
COC(=O)Nc1ccc(-c2cnc3ccc(N(C)C(=O)c4ccc(C#N)c(F)c4)cn23)cn1 [Compound 15, methyl N-[5-[6-[(4-cyano-3-fluoro-benzoyl)-methyl-amino]imidazo[1,2-a]pyridin-3-yl]-2-pyridyl]carbamate] | – | ≥ 80 | –
COC(=O)Nc1ccc(-c2cnc3ccc(N(C)C(=O)c4ccc(C#N)c(C)c4)cn23)cn1 [Compound 17, methyl N-[5-[6-[(4-cyano-3-methyl-benzoyl)-methyl-amino]imidazo[1,2-a]pyridin-3-yl]-2-pyridyl]carbamate] | – | ≥ 80 | –
CCOc1cc(C(=O)N(C)c2cc(C)c3ncc(-c4ccc(NC(=O)OC)nc4)n3c2)ccc1F [Compound 19, methyl N-[5-[6-[(3-ethoxy-4-fluoro-benzoyl)-methyl-amino]-8-methyl-imidazo[1,2-a]pyridin-3-yl]-2-pyridyl]carbamate] | ≥ 80 | ≥ 80 | –
COC(=O)Nc1ccc(-c2cnc3ccc(N(C)C(=O)c4ccc(F)c(C)c4)cn23)cn1 [Compound 21, methyl N-[5-[6-[(4-fluoro-3-methyl-benzoyl)-methyl-amino]imidazo[1,2-a]pyridin-3-yl]-2-pyridyl]carbamate] | ≥ 80 | ≥ 80 | –
COC(=O)Nc1ccc(-c2cnc3ccc(N(C)C(=O)c4ccc(F)c(F)c4)cn23)cn1 [Compound 22, methyl N-[5-[6-[(3,4-difluorobenzoyl)-methyl-amino]imidazo[1,2-a]pyridin-3-yl]-2-pyridyl]carbamate] | ≥ 80 | ≥ 80 | –
CCOc1cc(C(=O)N(C)c2ccc3ncc(-c4ccc(NC(=O)OC)nc4)n3c2)ccc1F [Compound 23, methyl N-[5-[6-[(3-ethoxy-4-fluoro-benzoyl)-methyl-amino]imidazo[1,2-a]pyridin-3-yl]-2-pyridyl]carbamate] | ≥ 80 | ≥ 80 | –
COCN(C(=O)c1ccc(F)cc1)c1ccc2ncc(-c3ccc(NC(=O)OC)nc3)n2c1 [Compound 24, methyl N-[5-[6-[(4-fluorobenzoyl)-(methoxymethyl)amino]imidazo[1,2-a]pyridin-3-yl]-2-pyridyl]carbamate] | ≥ 80 | ≥ 80 | –
COCN(C(=O)c1ccc(F)c(OC)c1)c1ccc2ncc(-c3ccc(NC(=O)OC)nc3)n2c1 [Compound 25, methyl N-[5-[6-[(4-fluoro-3-methoxy-benzoyl)-(methoxymethyl)amino]imidazo[1,2-a]pyridin-3-yl]-2-pyridyl]carbamate] | ≥ 80 | ≥ 80 | ≥ 80
COC(=O)Nc1ccc(-c2cnc3ccc(N(C)C(=O)c4ccc(Cl)cc4)cn23)cc1 [Compound 27, methyl N-[4-[6-[(4-chlorobenzoyl)-methyl-amino]imidazo[1,2-a]pyridin-3-yl]phenyl]carbamate] | – | ≥ 80 | ≥ 80
COC(=O)Nc1ccc(-c2cnc3c(C)cc(N(C)C(=O)c4cccc(OC)n4)cn23)cn1 [Compound 37, methyl N-[5-[6-[(6-methoxypyridine-2-carbonyl)-methyl-amino]-8-methyl-imidazo[1,2-a]pyridin-3-yl]-2-pyridyl]carbamate] | ≥ 80 | – | –
COC(=O)Nc1ccc(-c2cnc3c(C)cc(N(C)C(=O)c4ccccc4C(=O)OC)cn23)cn1 [Compound 40] | ≥ 80 | – | –
COC(=O)Nc1ccc(-c2cnc3c(C)cc(N(C)C(=O)c4cnc(F)c(C)c4)cn23)cn1 [Compound 43, methyl N-[5-[6-[(6-fluoro-5-methyl-pyridine-3-carbonyl)-methyl-amino]-8-methyl-imidazo[1,2-a]pyridin-3-yl]-2-pyridyl]carbamate] | ≥ 80 | ≥ 80 | –
COC(=O)Nc1ccc(-c2cnc3c(C)cc(N(C)C(=O)c4cccnc4SC)cn23)cn1 [Compound 46, methyl N-[5-[8-methyl-6-[methyl-(2-methylsulfanylpyridine-3-carbonyl)amino]imidazo[1,2-a]pyridin-3-yl]-2-pyridyl]carbamate] | ≥ 80 | – | –
COC(=O)Nc1ccc(-c2cnc3c(C)cc(N(C)C(=O)c4ccc(C#N)nc4)cn23)cn1 [Compound 51, methyl N-[5-[6-[(6-cyanopyridine-3-carbonyl)-methyl-amino]-8-methyl-imidazo[1,2-a]pyridin-3-yl]-2-pyridyl]carbamate] | ≥ 80 | – | –
COC(=O)Nc1ccc(-c2cnc3c(NC(C)=O)cc(N(C)C(=O)c4ccc(F)c(OC)c4)cn23)cn1 [Compound 59, methyl N-[5-[8-acetamido-6-[(4-fluoro-3-methoxy-benzoyl)-methyl-amino]imidazo[1,2-a]pyridin-3-yl]-2-pyridyl]carbamate] | ≥ 80 | ≥ 80 | –
COC(=O)Nc1ccc(-c2cnc3ccc(N(CCC#N)C(=O)c4ccc(F)c(OC)c4)cn23)cn1 [Compound 62, methyl N-[5-[6-[2-cyanoethyl-(4-fluoro-3-methoxy-benzoyl)amino]imidazo[1,2-a]pyridin-3-yl]-2-pyridyl]carbamate] | ≥ 80 | ≥ 80 | –

— patent US20260258038A1 (priority 2023, published 2026)
